Measurements published in PubChem BioAssay (NCI).
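Following 48 hours of exposure in 96-well plates, responses at five concentrations were used to interpolate endpoints linearly. GI50 = concentration required for 50% inhibition of growth. Definition used: TGI = concentration required for complete inhibition of growth.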

What was measured:
Test in all cases: NCI-60 cell line screen, 48 h
[1] = test system: 786-0 renal
[2] = test system: A498 renal
[3] = test system: A549 NSCLC
[4] = test system: ACHN renal
[5] = test system: BT-549 breast
[6] = test system: CAKI-1 renal
[7] = test system: CCRF-CEM leukemia
[8] = test system: COLO 205 colon
[9] = test system: DU-145 prostate
[10] = test system: EKVX NSCLC
[11] = test system: HCC-2998 colon
[12] = test system: HCT-116 colon
[13] = test system: HCT-15 colon
[14] = test system: HL-60(TB) leukemia
[15] = test system: HOP-62 NSCLC
[16] = test system: HOP-92 NSCLC
[17] = test system: HS 578T breast
[18] = test system: HT29 colon
[19] = test system: IGROV1 ovarian
[20] = test system: K-562 leukemia
[21] = test system: KM12 colon
[22] = test system: LOX IMVI melanoma
[23] = test system: M14 melanoma
[24] = test system: MALME-3M melanoma
[25] = test system: MCF7 breast
[26] = test system: MDA-MB-231 breast
[27] = test system: MDA-MB-435
[28] = test system: MDA-MB-468 breast
[29] = test system: MOLT-4 leukemia
[30] = test system: NCI-H226 lung
[31] = test system: NCI-H23 lung
[32] = test system: NCI-H460 lung
[33] = test system: NCI-H522 lung
[34] = test system: NCI/ADR-RES ovarian
[35] = test system: OVCAR-3 ovarian
[36] = test system: OVCAR-4 ovarian
[37] = test system: OVCAR-5 ovarian
[38] = test system: OVCAR-8 ovarian
[39] = test system: PC-3 prostate
[40] = test system: RPMI-8226 leukemia
[41] = test system: RXF 393 renal
[42] = test system: SF-268 CNS
[43] = test system: SF-295 CNS
[44] = test system: SF-539 CNS
[45] = test system: SK-MEL-2 melanoma
[46] = test system: SK-MEL-28 melanoma
[47] = test system: SK-MEL-5 melanoma
[48] = test system: SK-OV-3 ovarian
[49] = test system: SN12C renal
[50] = test system: SNB-19 CNS
[51] = test system: SNB-75 CNS
[52] = test system: SR leukemia
[53] = test system: SW-620 colon
[54] = test system: T-47D breast
[55] = test system: TK-10 renal
[56] = test system: U251 CNS
[57] = test system: UACC-257 melanoma
[58] = test system: UACC-62 melanoma
[59] = test system: UO-31 renal

SMILES: Cn1cc(-c2cc(N)n3nc(-c4c[nH]c5ccccc45)cc3n2)c2cc(Cl)ccc21
- GI50 [1]: 1.6 µM
- TGI [1]: 3.2 µM
- GI50 [2]: 10.1 µM
- TGI [2]: 22 µM
- GI50 [3]: 3.15 µM
- TGI [3]: 13 µM
- GI50 [4]: 2.98 µM
- TGI [4]: 10.6 µM
- GI50 [5]: 16.9 µM
- TGI [5]: 31.9 µM
- GI50 [6]: 2.96 µM
- TGI [6]: 12.4 µM
- GI50 [7]: 3.22 µM
- TGI [7]: > 100 µM
- GI50 [8]: 2.17 µM
- TGI [8]: 4.26 µM
- GI50 [9]: 5.69 µM
- TGI [9]: 22.5 µM
- GI50 [10]: 2.8 µM
- TGI [10]: 12.5 µM
- GI50 [11]: 1.8 µM
- TGI [11]: 3.41 µM
- GI50 [12]: 1.84 µM
- TGI [12]: 3.5 µM
- GI50 [13]: 1.72 µM
- TGI [13]: 3.29 µM
- GI50 [14]: 2.91 µM
- TGI [14]: 13.7 µM
- GI50 [15]: 2.84 µM
- TGI [15]: 10.8 µM
- GI50 [16]: 2.73 µM
- TGI [16]: 9.96 µM
- GI50 [17]: 4.06 µM
- TGI [17]: 24.3 µM
- GI50 [18]: 1.76 µM
- TGI [18]: 3.43 µM
- GI50 [19]: 3.61 µM
- TGI [19]: 14.6 µM
- GI50 [20]: 2.27 µM
- TGI [20]: 5.68 µM
- GI50 [21]: 2.55 µM
- TGI [21]: 6.63 µM
- GI50 [22]: 1.71 µM
- TGI [22]: 3.08 µM
- GI50 [23]: 2.15 µM
- TGI [23]: 4.93 µM
- GI50 [24]: 3.93 µM
- TGI [24]: 14.3 µM
- GI50 [25]: 1.65 µM
- TGI [25]: 3.58 µM
- GI50 [26]: 1.9 µM
- TGI [26]: 3.61 µM
- GI50 [27]: 3.69 µM
- TGI [27]: 13.4 µM
- GI50 [28]: 1.89 µM
- TGI [28]: 4.59 µM
- GI50 [29]: 1.87 µM
- TGI [29]: 5.24 µM
- GI50 [30]: 14.1 µM
- TGI [30]: 47.1 µM
- GI50 [31]: 2.45 µM
- TGI [31]: 7.38 µM
- GI50 [32]: 2.35 µM
- TGI [32]: 5.45 µM
- GI50 [33]: 1.64 µM
- TGI [33]: 3.43 µM
- GI50 [34]: 2.85 µM
- TGI [34]: 9.09 µM
- GI50 [35]: 4.75 µM
- TGI [35]: 29.6 µM
- GI50 [36]: 7.3 µM
- TGI [36]: 29.7 µM
- GI50 [37]: 2.09 µM
- TGI [37]: 4.81 µM
- GI50 [38]: 3.53 µM
- TGI [38]: 14.2 µM
- GI50 [39]: 3.15 µM
- TGI [39]: 11.4 µM
- GI50 [40]: 3.42 µM
- TGI [40]: 29 µM
- GI50 [41]: 2.47 µM
- TGI [41]: 8.46 µM
- GI50 [42]: 5.21 µM
- TGI [42]: 26.6 µM
- GI50 [43]: 1.87 µM
- TGI [43]: 3.79 µM
- GI50 [44]: 1.81 µM
- TGI [44]: 3.66 µM
- GI50 [45]: 6.75 µM
- TGI [45]: 24 µM
- GI50 [46]: 7.16 µM
- TGI [46]: 19.9 µM
- GI50 [47]: 7.16 µM
- TGI [47]: 19.7 µM
- GI50 [48]: 15.9 µM
- TGI [48]: 43 µM
- GI50 [49]: 5.3 µM
- TGI [49]: 18.8 µM
- GI50 [50]: 4.32 µM
- TGI [50]: 16.3 µM
- GI50 [51]: 4 µM
- TGI [51]: 18.3 µM
- GI50 [52]: 0.857 µM
- TGI [52]: > 100 µM
- GI50 [53]: 2 µM
- TGI [53]: 3.92 µM
- GI50 [54]: 4.44 µM
- TGI [54]: 20 µM
- GI50 [55]: 4.34 µM
- TGI [55]: 15.7 µM
- GI50 [56]: 2.01 µM
- TGI [56]: 4.44 µM
- GI50 [57]: 10.6 µM
- TGI [57]: 23.5 µM
- GI50 [58]: 5.36 µM
- TGI [58]: 18.7 µM
- GI50 [59]: 4.22 µM
- TGI [59]: 16.9 µM
